Assay results as given in patent US20240208968A1, “ALPHA V BETA 6 AND ALPHA V BETA 1 INTEGRIN INHIBITORS AND USES THEREOF” (DiCE Molecules SV, Inc., priority 2021, published 2024).
pIC50: −log10 of the molar value.

Tests used:
αvβ1 = αvβ1 (Homo sapiens, UniProt P05556+P06756); assay: Solid Phase Integrin αvβ1 Assay; format: binding
In short: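 Compound competes for αvβ1 binding to immobilized TGFb1-LAP (1 µg/mL coat) in Mn2+ (1 mM MnCl2), 2% BSA binding buffer over 90 min at room temperature, integrin added at 0.2 µg/mL. Read-out: streptavidin-HRP/TMB; IC50 from Levenberg-Marquardt four-parameter fit.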

αvβ6 = αvβ6 (Homo sapiens, UniProt P06756+P18564); assay: Solid Phase Integrin αvβ6 Assay; format: binding
Chain of αvβ6 (P06756 31-992 limits assumed): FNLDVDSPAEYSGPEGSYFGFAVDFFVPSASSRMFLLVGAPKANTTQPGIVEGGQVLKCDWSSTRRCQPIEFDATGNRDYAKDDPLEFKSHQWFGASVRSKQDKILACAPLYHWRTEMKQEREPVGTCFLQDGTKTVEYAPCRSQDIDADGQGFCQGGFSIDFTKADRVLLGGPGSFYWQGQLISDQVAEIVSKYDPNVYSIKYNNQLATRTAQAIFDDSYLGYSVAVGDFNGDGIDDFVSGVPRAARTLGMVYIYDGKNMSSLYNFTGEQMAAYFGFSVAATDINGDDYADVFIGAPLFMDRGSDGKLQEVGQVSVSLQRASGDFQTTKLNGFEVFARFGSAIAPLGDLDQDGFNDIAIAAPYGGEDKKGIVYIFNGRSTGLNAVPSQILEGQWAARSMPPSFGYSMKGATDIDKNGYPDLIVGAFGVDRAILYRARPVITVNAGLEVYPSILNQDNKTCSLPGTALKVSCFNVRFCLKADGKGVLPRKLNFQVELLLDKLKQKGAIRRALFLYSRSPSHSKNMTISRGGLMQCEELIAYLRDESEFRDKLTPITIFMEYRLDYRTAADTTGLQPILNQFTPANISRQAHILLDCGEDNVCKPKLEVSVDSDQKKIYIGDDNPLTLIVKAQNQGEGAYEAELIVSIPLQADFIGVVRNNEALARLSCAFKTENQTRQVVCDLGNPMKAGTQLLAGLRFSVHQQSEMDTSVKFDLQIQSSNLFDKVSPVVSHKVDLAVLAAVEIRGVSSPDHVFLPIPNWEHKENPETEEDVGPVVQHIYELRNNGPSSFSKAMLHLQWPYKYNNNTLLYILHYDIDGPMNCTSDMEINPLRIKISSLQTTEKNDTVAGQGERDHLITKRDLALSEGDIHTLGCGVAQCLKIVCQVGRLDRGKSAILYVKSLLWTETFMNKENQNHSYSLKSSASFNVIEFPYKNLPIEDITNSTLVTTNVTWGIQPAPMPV
Chain of αvβ6 (P18564 22-707 limits assumed): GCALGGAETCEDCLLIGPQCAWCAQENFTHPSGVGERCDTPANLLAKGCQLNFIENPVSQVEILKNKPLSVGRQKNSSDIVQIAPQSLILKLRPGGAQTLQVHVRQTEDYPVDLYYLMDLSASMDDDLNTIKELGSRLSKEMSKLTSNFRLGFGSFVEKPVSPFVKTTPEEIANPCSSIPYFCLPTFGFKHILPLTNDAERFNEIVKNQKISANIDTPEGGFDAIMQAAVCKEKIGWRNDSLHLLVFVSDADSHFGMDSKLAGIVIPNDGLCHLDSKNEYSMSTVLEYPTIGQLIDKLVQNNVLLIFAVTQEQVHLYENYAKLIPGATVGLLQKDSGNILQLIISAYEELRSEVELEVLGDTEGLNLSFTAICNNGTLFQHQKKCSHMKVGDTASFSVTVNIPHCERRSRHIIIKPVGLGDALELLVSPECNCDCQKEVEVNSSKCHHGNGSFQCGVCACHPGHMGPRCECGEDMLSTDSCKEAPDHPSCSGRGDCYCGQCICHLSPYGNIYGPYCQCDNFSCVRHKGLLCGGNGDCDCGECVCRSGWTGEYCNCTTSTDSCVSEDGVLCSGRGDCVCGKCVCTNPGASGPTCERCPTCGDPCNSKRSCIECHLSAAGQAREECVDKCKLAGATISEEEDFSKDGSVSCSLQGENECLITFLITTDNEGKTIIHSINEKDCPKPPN
In short: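 Inhibition of αvβ6 binding to immobilized recombinant TGFb1-LAP (1 μg/mL coating), 1 h at room temperature with 1 mM MnCl2 in BSA/TBST buffer, integrin diluted to 0.2 μg/mL before addition. Streptavidin-HRP/TMB read-out; four-parameter logistic fitting gave IC50.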

Chain of αvβ1 (P06756 31-992 limits assumed): as the sequence (P06756 31-992 limits assumed) above
Chain of αvβ1 (P05556 21-728 limits assumed): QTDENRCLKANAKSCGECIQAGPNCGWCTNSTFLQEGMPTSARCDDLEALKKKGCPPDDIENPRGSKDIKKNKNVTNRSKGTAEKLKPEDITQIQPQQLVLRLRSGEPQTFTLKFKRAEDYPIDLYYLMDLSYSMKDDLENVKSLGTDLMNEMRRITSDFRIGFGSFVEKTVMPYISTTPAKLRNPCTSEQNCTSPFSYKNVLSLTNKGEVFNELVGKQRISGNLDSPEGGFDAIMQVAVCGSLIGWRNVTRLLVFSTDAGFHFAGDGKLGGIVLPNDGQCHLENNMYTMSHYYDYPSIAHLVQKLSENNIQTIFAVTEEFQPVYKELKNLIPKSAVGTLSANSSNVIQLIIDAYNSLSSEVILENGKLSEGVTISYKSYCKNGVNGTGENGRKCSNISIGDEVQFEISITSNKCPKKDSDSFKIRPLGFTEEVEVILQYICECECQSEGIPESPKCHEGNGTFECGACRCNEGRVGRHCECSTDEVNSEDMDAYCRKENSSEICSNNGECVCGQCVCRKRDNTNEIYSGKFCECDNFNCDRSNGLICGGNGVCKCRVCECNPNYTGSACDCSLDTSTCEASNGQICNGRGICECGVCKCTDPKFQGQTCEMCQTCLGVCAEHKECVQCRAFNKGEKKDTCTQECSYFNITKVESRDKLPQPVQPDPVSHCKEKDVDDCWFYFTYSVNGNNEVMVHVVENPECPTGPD

Question: Which results are given for `O=C(O)C[C@H](NC(=O)[C@@H]1CCCN(CCCc2ccc3c(n2)NCCC3)C1)c1cccc2c1OCO2` [Compound 614]?
Answer: pIC50 (αvβ1): > 7.00; pIC50 (αvβ6): > 7.00

Question: With `O=C(O)C[C@H](NC(=O)[C@@H]1CCCN(CCCc2ccc3c(n2)NCCC3)C1)c1cccc2c1CCO2` [Compound 615] as the molecule, how does the pIC50 (αvβ1) read?
Answer: Its pIC50 is over 7.00.

Question: And the pIC50 (αvβ6)?
Answer: Its pIC50 is over 7.00.

Question: `O=C(O)C[C@H](NC(=O)[C@@H]1CCCN(CCCc2ccc3c(n2)NCCC3)C1)c1cnn(-c2ccccc2)c1` [Compound 616] was tested. Which pIC50 (αvβ1) did it give?
Answer: The pIC50 was over 7.00.

Question: What about the pIC50 (αvβ6) of the same molecule?
Answer: The pIC50 was over 7.00.

Question: `C[C@@H]1CN(c2cccc([C@H](CC(=O)O)NC(=O)[C@@H]3CCCN(CCCc4ccc5c(n4)NCCC5)C3)c2)C[C@H](C)O1` [Compound 617] was tested. Which pIC50 (αvβ1) did it give?
Answer: Its pIC50 is over 7.00.

Question: And the pIC50 (αvβ6)?
Answer: The pIC50 was over 7.00.

Question: Which results are given for `C[C@@H]1CN(c2cccc([C@H](CC(=O)O)NC(=O)[C@@H]3CCCN(CCCc4ccc5c(n4)NCCC5)C3)c2)C[C@@H](C)O1` [Compound 618]?
Answer: pIC50 (αvβ1): > 7.00; pIC50 (αvβ6): > 7.00

Question: What does the source list for `O=C(NC[C@H](C(=O)O)c1cccc2cn([C@H]3CCC(F)(F)C3)nc12)[C@@H]1CCCN(CCCc2ccc3c(n2)NCCC3)C1` [Compound 619]?
Answer: pIC50 (αvβ1): > 7.00; pIC50 (αvβ6): > 7.00

Question: Which results are given for `O=C(NC[C@H](C(=O)O)c1cncc(-c2ccccc2)c1)[C@@H]1CCCN(CCCc2ccc3c(n2)NCCC3)C1` [Compound 620]?
Answer: pIC50 (αvβ1): > 7.00; pIC50 (αvβ6): > 7.00

Question: How did the pIC50 (αvβ1) turn out when `O=C(NC[C@H](C(=O)O)c1cccc(-c2ccccc2C(F)(F)F)c1)[C@@H]1CCCN(CCCc2ccc3c(n2)NCCC3)C1` [Compound 621] was run?
Answer: The pIC50 was over 7.00.

Question: What about the pIC50 (αvβ6) of the same molecule?
Answer: Its pIC50 is over 7.00.

Question: Which results are given for `O=C(NC[C@H](C(=O)O)c1ccc(F)c(-c2ccccc2)c1F)[C@@H]1CCCN(CCCc2ccc3c(n2)NCCC3)C1` [Compound 622]?
Answer: pIC50 (αvβ1): 6.00 to 7.00; pIC50 (αvβ6): 6.00 to 7.00

Question: What does the source list for `O=C(NC[C@H](C(=O)O)c1cccc2cn([C@@H]3CCC(F)(F)C3)nc12)[C@@H]1CCCN(CCCc2ccc3c(n2)NCCC3)C1` [Compound 623]?
Answer: pIC50 (αvβ1): > 7.00; pIC50 (αvβ6): > 7.00

Question: With `O=C(NC[C@@H](C(=O)O)c1cccc2cn([C@H]3CCC(F)(F)C3)nc12)[C@@H]1CCCN(CCCc2ccc3c(n2)NCCC3)C1` [Compound 624] as the molecule, how does the pIC50 (αvβ1) read?
Answer: The pIC50 was 6.00 to 7.00.

Question: And the pIC50 (αvβ6)?
Answer: Its pIC50 is under 6.00.

Question: Which results are given for `O=C(NC[C@@H](C(=O)O)c1cccc(-c2ccccc2C(F)(F)F)c1)[C@@H]1CCCN(CCCc2ccc3c(n2)NCCC3)C1` [Compound 625]?
Answer: pIC50 (αvβ1): < 6.00; pIC50 (αvβ6): 6.00 to 7.00

Question: With `O=C(NC[C@@H](C(=O)O)c1ccc(F)c(-c2ccccc2)c1F)[C@@H]1CCCN(CCCc2ccc3c(n2)NCCC3)C1` [Compound 626] as the molecule, how does the pIC50 (αvβ1) read?
Answer: The pIC50 was over 7.00.

Question: And the pIC50 (αvβ6)?
Answer: The pIC50 was over 7.00.

Question: With `O=C(NC[C@@H](C(=O)O)c1cncc(-c2ccccc2)c1)[C@@H]1CCCN(CCCc2ccc3c(n2)NCCC3)C1` [Compound 627] as the molecule, how does the pIC50 (αvβ1) read?
Answer: Its pIC50 is over 7.00.

Question: And the pIC50 (αvβ6)?
Answer: The pIC50 was over 7.00.

Question: What does the source list for `O=C(O)C(CNC(=O)[C@@H]1CCCN(CCCc2ccc3c(n2)NCCC3)C1)c1cc(-c2ccccc2)ccn1` (stereo partly drawn) [Compound 628]?
Answer: pIC50 (αvβ1): > 7.00; pIC50 (αvβ6): > 7.00

Question: What does the source list for `O=C(NC[C@H](C(=O)O)c1cc(F)cc(-c2cccc(F)c2)c1)[C@@H]1CCCN(CCCc2ccc3c(n2)NCCC3)C1` [Compound 629]?
Answer: pIC50 (αvβ1): < 6.00; pIC50 (αvβ6): 6.00 to 7.00

Question: `C[C@@H]1C[C@@H](C(=O)NC[C@H](C(=O)O)c2cccc(-c3ccccc3)c2)CN(CCCc2ccc3c(n2)NCCC3)C1` [Compound 630] was tested. Which pIC50 (αvβ1) did it give?
Answer: The pIC50 was under 6.00.

Question: And the pIC50 (αvβ6)?
Answer: Its pIC50 is under 6.00.

Question: How did the pIC50 (αvβ1) turn out when `C[C@H]1C[C@@H](C(=O)NC[C@H](C(=O)O)c2cccc(-c3ccccc3)c2)CN(CCCc2ccc3c(n2)NCCC3)C1` [Compound 631] was run?
Answer: The pIC50 was over 7.00.

Question: What about the pIC50 (αvβ6) of the same molecule?
Answer: The pIC50 was over 7.00.

Question: How did the pIC50 (αvβ1) turn out when `C[C@@H]1C[C@@H](C(=O)NC[C@H](C(=O)O)c2ccc3ccccc3c2)CN(CCCc2ccc3c(n2)NCCC3)C1` [Compound 632] was run?
Answer: Its pIC50 is 6.00 to 7.00.

Question: What about the pIC50 (αvβ6) of the same molecule?
Answer: The pIC50 was 6.00 to 7.00.

Question: With `C[C@H]1C[C@@H](C(=O)NC[C@H](C(=O)O)c2ccc3ccccc3c2)CN(CCCc2ccc3c(n2)NCCC3)C1` [Compound 633] as the molecule, how does the pIC50 (αvβ1) read?
Answer: Its pIC50 is over 7.00.

Question: And the pIC50 (αvβ6)?
Answer: Its pIC50 is over 7.00.

Question: `C[C@@H]1C[C@H](C(=O)NC[C@H](C(=O)O)c2ccc3ccccc3c2)CN(CCCc2ccc3c(n2)NCCC3)C1` [Compound 634] was tested. Which pIC50 (αvβ1) did it give?
Answer: Its pIC50 is 6.00 to 7.00.

Question: What about the pIC50 (αvβ6) of the same molecule?
Answer: Its pIC50 is 6.00 to 7.00.

Question: With `C[C@H]1C[C@H](C(=O)NC[C@H](C(=O)O)c2ccc3ccccc3c2)CN(CCCc2ccc3c(n2)NCCC3)C1` [Compound 635] as the molecule, how does the pIC50 (αvβ1) read?
Answer: Its pIC50 is 6.00 to 7.00.

Question: What about the pIC50 (αvβ6) of the same molecule?
Answer: The pIC50 was 6.00 to 7.00.

Question: With `O=C(NC[C@@H](C(=O)O)c1cc(F)cc(-c2cccc(F)c2)c1)[C@@H]1CCCN(CCCc2ccc3c(n2)NCCC3)C1` [Compound 636] as the molecule, how does the pIC50 (αvβ1) read?
Answer: Its pIC50 is over 7.00.

Question: What about the pIC50 (αvβ6) of the same molecule?
Answer: Its pIC50 is over 7.00.

Question: With `C[C@@H]1C[C@H](C(=O)NC[C@H](C(=O)O)c2cccc(-c3ccccc3)c2)CN(CCCc2ccc3c(n2)NCCC3)C1` [Compound 637] as the molecule, how does the pIC50 (αvβ1) read?
Answer: Its pIC50 is 6.00 to 7.00.

Question: And the pIC50 (αvβ6)?
Answer: The pIC50 was over 7.00.

Question: `C[C@H]1C[C@H](C(=O)NC[C@H](C(=O)O)c2cccc(-c3ccccc3)c2)CN(CCCc2ccc3c(n2)NCCC3)C1` [Compound 638] was tested. Which pIC50 (αvβ1) did it give?
Answer: Its pIC50 is over 7.00.

Question: What about the pIC50 (αvβ6) of the same molecule?
Answer: Its pIC50 is over 7.00.

Question: `C[C@@H]1C[C@@H](C(=O)NC[C@@H](C(=O)O)c2ccc3ccccc3c2)CN(CCCc2ccc3c(n2)NCCC3)C1` [Compound 639] was tested. Which pIC50 (αvβ1) did it give?
Answer: The pIC50 was 6.00 to 7.00.

Question: And the pIC50 (αvβ6)?
Answer: The pIC50 was 6.00 to 7.00.

Question: With `C[C@@H]1C[C@@H](C(=O)NC[C@@H](C(=O)O)c2cccc(-c3ccccc3)c2)CN(CCCc2ccc3c(n2)NCCC3)C1` [Compound 640] as the molecule, how does the pIC50 (αvβ1) read?
Answer: The pIC50 was 6.00 to 7.00.

Question: What about the pIC50 (αvβ6) of the same molecule?
Answer: The pIC50 was 6.00 to 7.00.

Question: How did the pIC50 (αvβ1) turn out when `C[C@@H]1C[C@H](C(=O)NC[C@@H](C(=O)O)c2ccc3ccccc3c2)CN(CCCc2ccc3c(n2)NCCC3)C1` [Compound 641] was run?
Answer: Its pIC50 is 6.00 to 7.00.

Question: What about the pIC50 (αvβ6) of the same molecule?
Answer: Its pIC50 is 6.00 to 7.00.

Question: What does the source list for `C[C@@H]1C[C@H](C(=O)NC[C@@H](C(=O)O)c2cccc(-c3ccccc3)c2)CN(CCCc2ccc3c(n2)NCCC3)C1` [Compound 642]?
Answer: pIC50 (αvβ1): < 6.00; pIC50 (αvβ6): < 6.00

Question: `C[C@H]1C[C@H](C(=O)NC[C@@H](C(=O)O)c2ccc3ccccc3c2)CN(CCCc2ccc3c(n2)NCCC3)C1` [Compound 643] was tested. Which pIC50 (αvβ1) did it give?
Answer: Its pIC50 is over 7.00.

Question: And the pIC50 (αvβ6)?
Answer: The pIC50 was over 7.00.

Question: How did the pIC50 (αvβ1) turn out when `C[C@H]1C[C@H](C(=O)NC[C@@H](C(=O)O)c2cccc(-c3ccccc3)c2)CN(CCCc2ccc3c(n2)NCCC3)C1` [Compound 644] was run?
Answer: Its pIC50 is 6.00 to 7.00.

Question: And the pIC50 (αvβ6)?
Answer: The pIC50 was 6.00 to 7.00.

Question: What does the source list for `C[C@H]1C[C@@H](C(=O)NC[C@@H](C(=O)O)c2ccc3ccccc3c2)CN(CCCc2ccc3c(n2)NCCC3)C1` [Compound 645]?
Answer: pIC50 (αvβ1): 6.00 to 7.00; pIC50 (αvβ6): < 6.00

Question: How did the pIC50 (αvβ1) turn out when `C[C@H]1C[C@@H](C(=O)NC[C@@H](C(=O)O)c2cccc(-c3ccccc3)c2)CN(CCCc2ccc3c(n2)NCCC3)C1` [Compound 646] was run?
Answer: Its pIC50 is under 6.00.

Question: What about the pIC50 (αvβ6) of the same molecule?
Answer: The pIC50 was 6.00 to 7.00.

Question: What does the source list for `CC1(C)CN(c2cc([C@@H](CO[C@@H]3CCCN(CCCc4ccc5c(n4)NCCC5)C3)CC(=O)O)ccc2Cl)CCO1` [Compound 647]?
Answer: pIC50 (αvβ1): > 7.00; pIC50 (αvβ6): > 7.00

Question: With `CC1(C)CN(c2cc([C@H](CO[C@@H]3CCCN(CCCc4ccc5c(n4)NCCC5)C3)CC(=O)O)ccc2Cl)CCO1` [Compound 648] as the molecule, how does the pIC50 (αvβ1) read?
Answer: The pIC50 was 6.00 to 7.00.

Question: What about the pIC50 (αvβ6) of the same molecule?
Answer: The pIC50 was 6.00 to 7.00.

Question: `O=C(O)C[C@@H](CO[C@@H]1CCCN(CCCc2ccc3c(n2)NCCC3)C1)c1cncc(N2CCC(F)(F)CC2)c1` [Compound 649] was tested. Which pIC50 (αvβ1) did it give?
Answer: The pIC50 was over 7.00.

Question: And the pIC50 (αvβ6)?
Answer: The pIC50 was over 7.00.

Question: What does the source list for `CC1(C)CN(c2cc(Cl)cc(C(CO[C@@H]3CCCN(CCCc4ccc5c(n4)NCCC5)C3)CC(=O)O)c2)CCO1` (stereo partly drawn) [Compound 650]?
Answer: pIC50 (αvβ1): > 7.00; pIC50 (αvβ6): > 7.00

Question: Which results are given for `CC1(C)CN(c2cccc([C@H](CO[C@@H]3CCCN(CCCc4ccc5c(n4)NCCC5)C3)CC(=O)O)c2)CCC1(F)F` [Compound 651]?
Answer: pIC50 (αvβ1): > 7.00; pIC50 (αvβ6): > 7.00

Question: What does the source list for `CC1(C)CN(c2cccc([C@@H](CO[C@@H]3CCCN(CCCc4ccc5c(n4)NCCC5)C3)CC(=O)O)c2)CCC1(F)F` [Compound 652]?
Answer: pIC50 (αvβ1): > 7.00; pIC50 (αvβ6): > 7.00
